In patent US8193180B2, “N-amino tetrahydrothiazine derivatives, method of manufacture and use” (Women & Infants Hospital, priority 2007, dated 2012):

Legend:
[1] = tested on: Stage V Alzheimer's disease; test: Alzheimer treatment, patient case (second Example 10); format: in vivo, human; conditions: 5 mg/kg oral daily, chronically, six month period
Description: A subject presents with Stage V Alzheimer's disease. The subject is treated daily with 5 mg/kg oral doses of N-(3-methyl-1,1-dioxo-1,4-thiazinan-4-yl)-1-[3,4,5-trimethoxy phenyl sulfonyl], chronically.

[2] = tested on: Stage IV pancreatic cancer; test: Treatment of pancreatic cancer, patient case (Example 7); format: in vivo, human; conditions: 10 mg/kg/day tablets every other day for 30 days (15 doses)
Description: A subject presents with Stage IV pancreatic cancer. The subject is treated daily with 10 mg/kg/day of N-(3-methyl-1,1-dioxo-1,4-thiazinan-4-yl)-1-[1-phenyl, 1-acetic acid]methane by tablets every other day for 30 consecutive days (15 doses). Upon examination, cancer involvement is found reduced by about 20%.

[3] = tested on: stage III ovarian cancer; test: Ovarian cancer treatment, patient case (Example 10); format: in vivo, human; conditions: 10 mg/kg daily orally or IV for 48 days
Description: A subject presents with recurrent/progressive stage III ovarian cancer refractory to all other treatments. The subject is treated daily with 10 mg/kg of N-(3-methyl-1,1-dioxo-1,4-thiazinan-4-yl)-1-[3-chloro, 5-bromo coumarin-2-carbonyl] orally or IV for 48 days.

[4] = tested on: SMSKCNR cells; test: Neuroblastoma xenograft mouse model, oral dosing in food pellets; conditions: 3 weeks
Description: Nude mice were injected subcutaneously in the flank with 10^7 SMSKCNR cells and tumors were allowed to grow for 7 days. Mice were then fed either control food pellets or pellets containing 50, 100, or 150 mg/kg/day of RKS-2-62 for 3 weeks (4 mice per group). Tumors were harvested and weighed.

[5] = Chloroform/water partition test; format: physicochemical
Description: In addition, RKS-2-26 is lipid soluble and likely to cross the blood brain barrier. […] Then 1 mL of distilled water was added and vortexed.

[6] = tested on: SMSKCNR cells; test: Reactive oxygen species, carboxylated DCF flow cytometry; format: cell-based, human; conditions: 90 minutes incubation, vs control
Description: RKS-2-62 increases reactive oxygen species in neuroblastoma cells. SMSKCNR cells treated with RKS-2-62 were incubated with carboxyl-DCF. SMSKCNR cells were grown in T25 flasks and incubated in RKS-2-62 for 90 minutes prior to treatment with carboxylated DCF. Cells were collected and analyzed by flow cytometry. […] Control is the left hand peak in grey. RKS-2-62 is the right hand peak. Oxidation of DCF by reactive oxygen species (ROS) causes increased fluorescence, and a lower concentration of RKS-2-62 than of nifurtimox was required to achieve the same effect.

[7] = tested on: DAOY medulloblastoma cells; test: Calcein AM cell viability assay, DAOY medulloblastoma cells; format: cell-based; conditions: 48 hours
Text: (§1) For the D283 cell line, viability after exposure to RKS was decreased compared to nifurtimox (P=0.008), with similar results for the DAOY cell line (P=0.026).

[8] = tested on: D283 medulloblastoma cells; test: Calcein AM cell viability assay, D283 medulloblastoma cells; format: cell-based; conditions: 48 hours
Text: as §1

[9] = tested on: SMS-KCNR neuroblastoma cells; test: cells; conditions: Homo sapiens, 48 h, read-out: cell viability, mean value
Description: SMS-KCNR neuroblastoma cells were incubated for 48 hours with increasing levels of either nifurtimox or RKS-2-62, and cytotoxicity was determined using the Calcein AM cell viability assay. […] SMSKCNR cells were plated in 48 wells plates and treated with 0-20 μg/mL of either RKS-2-62 or nifurtimox for 48 hours. Cell viability was assessed using Calcein AM assay.

[10] = tested on: Stage IV neuroblastoma; test: Treatment of neuroblastoma, patient case (Example 5); format: in vivo, human
Text: A person presents with Stage IV neuroblastoma. […] Upon examination, tumor mass is found reduced by about 50%.

[11] = tested on: Stage IV breast cancer; test: Treatment of breast cancer, patient case (Example 6); format: in vivo, human; conditions: 10 mg/kg/day orally or IV daily for 15 consecutive days
Description: A subject presents with Stage IV breast cancer and axillary lymph node involvement. The subject is treated with 10 mg/kg/day of N-(3-methyl-1,1-dioxo-1,4-thiazinan-4-yl)-1-[1-phenyl, 1-methanol]methane orally or IV daily for 15 consecutive days. Upon examination, cancer involvement is found reduced by about 20%.

[12] = tested on: end stage liver cancer; test: Liver cancer treatment, patient case (Example 9); format: in vivo, human; conditions: 10 mg/kg daily orally or IV for 48 days
Description: A subject presents with end stage liver cancer refractory to all other treatments. The subject is treated daily with 10 mg/kg of N-(3-methyl-1,1-dioxo-1,4-thiazinan-4-yl)-1-[1-phenyl, 1-furan-2-yl] orally or IV for 48 days.

[13] = tested on: breast cancer; test: Breast cancer prophylaxis, patient case (Example 8); format: in vivo, human; conditions: 5 mg/kg daily by tablets for 48 months, BRCA 1 and 2 markers
Description: A subject presents normally, but has BRCA 1 and 2 markers as well as a family history of breast cancer. The subject is treated daily with 5 mg/kg of N-(3-methyl-1,1-dioxo-1,4-thiazinan-4-yl)-1-[5,6-dimethoxy coumarin-2-yl]methanimine by tablets for 48 months.

For `COc1cc(S(=O)(=O)NN2CCS(=O)(=O)CC2C)cc(OC)c1OC` (stereo not shown) [N-(3-methyl-1,1-dioxo-1,4-thiazinan-4-yl)-1-[1-(3,4,5-trimethoxyphenylsulfonyl]], the “progression of the disease” value [1] was “substantially no progression of the disease is noted”.

For `CC1CS(=O)(=O)CCN1NC(CC(=O)O)c1ccccc1` (stereo not shown) [N-(3-methyl-1,1-dioxo-1,4-thiazinan-4-yl)-1-[1-phenyl, 1-acetic acid]methane], the “reduction of cancer involvement” value [2] was “about 20%”.

For `CC1CS(=O)(=O)CCN1NC(=O)c1c(Cl)c2cc(Br)ccc2oc1=O` (stereo not shown), the “tumor growth upon examination” value [3] was “no further tumor growth is noted”.

In the case of `CC1CS(=O)(=O)CCN1N=Cc1c(Cl)c2cc(Br)ccc2oc1=O` (stereo not shown) [RKS-2-62], the “decrease of tumor weight compared to the control group” value (shortened to “decrease of tumor weight”) ([4]; 50 mg/kg/day oral in food pellets) is reported as “greater than 75%”, the “decrease of tumor weight” value ([4]; 100 mg/kg/day oral in food pellets) is reported as “greater than 75%” and the “decrease of tumor weight” value ([4]; 150 mg/kg/day oral in food pellets) is reported as “greater than 75%”. For the same compound, the “tolerability compared with nifurtimox” value ([4]; mice, oral) was “better tolerated in mice than nifurtimox”, the lipid solubility [5] was “lipid soluble” and the “distribution between chloroform layer and aqueous layer” value ([5]; 10 μg/μL in chloroform, 1 mL distilled water added, vortexed) was “remained solely in the chloroform layer and not the aqueous layer”. For the same compound, the solubility in chloroform ([5]; solution of 10 μg/μL) was “shown to dissolve in chloroform”, the “production of ROS (DCF fluorescence)” value [6] was “increase in production of ROS” and the “growth inhibition compared with nifurtimox” value ([7]; 0-10 μg/mL) was “inhibited the growth of both cell lines in a dose-dependent fashion and to a greater extent than nifurtimox”. For the same compound, the cytotoxicity at 10 µg/mL ([7]; Homo sapiens, 10 μg/mL, read-out: decrease of viability) was greater than 80%, the “growth inhibition compared with nifurtimox” value ([8]; 0-10 μg/mL) was “inhibited the growth of both cell lines in a dose-dependent fashion and to a greater extent than nifurtimox” and the cytotoxicity at 10 µg/mL ([8]; 10 μg/mL, read-out: decrease of viability) was greater than 80%. For the same compound, the viability at 5 µg/mL [9] was 51.9%.

`CC1CS(=O)(=O)CCN1/N=C\c1ccc([N+](=O)[O-])o1` (stereo not shown) [nifurtimox, reference compound] showed a viability at 5 µg/mL [9] of 88.4%.

For `CC1CS(=O)(=O)CCN1NC(c1ccccc1)c1ccccc1` (stereo not shown) [N-(3-methyl-1,1-dioxo-1,4-thiazinan-4-yl)-1-[1,1-diphenyl]methane], the tumor response ([10]; 15 mg/kg/day orally or IV for 2 weeks) was “tumor stabilization” and the “reduction of tumor mass” value ([10]; with further addition of cyclophosphamide and topotecan, 8 weeks) was “about 50%”.

In the case of `CC1CS(=O)(=O)CCN1NC(CO)c1ccccc1` (stereo not shown) [N-(3-methyl-1,1-dioxo-1,4-thiazinan-4-yl)-1-[1-phenyl, 1-methanol]methane], the “reduction of cancer involvement” value [11] is reported as “about 20%”.

In the case of `CC1CS(=O)(=O)CCN1N(c1ccccc1)c1ccco1` (stereo not shown) [N-(3-methyl-1,1-dioxo-1,4-thiazinan-4-yl)-1-[1-phenyl, 1-furan-2-yl]], the “liver cancer involvement upon examination” value [12] is reported as “no liver cancer involvement is found”.

For `COc1cc2cc(C=NN3CCS(=O)(=O)CC3C)c(=O)oc2cc1OC` (stereo not shown), the “cancer involvement upon examination” value [13] was “no cancer involvement is found”.
